Experimental data reported in the kinase profiling compilation of Christmann-Franck et al. (2016).
Where “and” joins values, the source holds several entries; their conditions need not be identical. Equal entries are not always repeated.

The molecules below were run against PRKACA (human) (UniProt P17612) (assay: radiometric filter-binding kinase assay, Kinase HotSpot). Conditions: compound 0.5 µM; ATP 10 µM.
Molecule `O=C(Nc1ccc(Cl)cc1)c1ccccc1NCc1ccncc1` has a residual activity of 97.1%. Work on `Nc1nc(Nc2ccc(S(N)(=O)=O)cc2)nn1C(=S)Nc1c(F)cccc1F` yielded a residual activity of 78.2%. `O=C1Cc2c([nH]c3ccc([N+](=O)[O-])cc23)-c2ccccc2N1` showed a residual activity of 87.4%. With `O=C1Nc2ccccc2/C1=C\c1c(Cl)[nH]c2ccccc12` the residual activity was 102%. Work on `O=c1cc(N2CCNCC2)oc2c(-c3ccccc3)cccc12` yielded a residual activity of 110%.

Each molecule was assayed against SYK (human) (UniProt P43405) in the same assay as above. Conditions: compound 0.5 µM; ATP 10 µM.
In the case of `O=C(Nc1ccc(Cl)cc1)c1ccccc1NCc1ccncc1`, the residual activity is reported as 93.6%. With `Nc1nc(Nc2ccc(S(N)(=O)=O)cc2)nn1C(=S)Nc1c(F)cccc1F` the residual activity was 15.5%. For `O=C1Cc2c([nH]c3ccc([N+](=O)[O-])cc23)-c2ccccc2N1`, the residual activity was 53.9%. Molecule `O=C1Nc2ccccc2/C1=C\c1c(Cl)[nH]c2ccccc12` has a residual activity of 102%. Work on `O=c1cc(N2CCNCC2)oc2c(-c3ccccc3)cccc12` yielded a residual activity of 104%.

These molecules were tested against CAMK2G (human) (UniProt Q13555) in the same assay as above. Conditions: compound 0.5 µM; ATP 10 µM.
In the case of `O=C(Nc1ccc(Cl)cc1)c1ccccc1NCc1ccncc1`, the residual activity is reported as 89.2%. `Nc1nc(Nc2ccc(S(N)(=O)=O)cc2)nn1C(=S)Nc1c(F)cccc1F` showed a residual activity of 15.6%. `O=C1Cc2c([nH]c3ccc([N+](=O)[O-])cc23)-c2ccccc2N1` showed a residual activity of 94.5%. `O=C1Nc2ccccc2/C1=C\c1c(Cl)[nH]c2ccccc12` gave a residual activity of 103%. Molecule `O=c1cc(N2CCNCC2)oc2c(-c3ccccc3)cccc12` has a residual activity of 102%.

Each molecule was assayed against RPS6KA1 KD1 KD2 (human) (UniProt Q15418) in the same assay as above. Conditions: compound 0.5 µM; ATP 10 µM.
Chain of RPS6KA1 KD1 KD2 (human) (Q15418 whole entry, looked up): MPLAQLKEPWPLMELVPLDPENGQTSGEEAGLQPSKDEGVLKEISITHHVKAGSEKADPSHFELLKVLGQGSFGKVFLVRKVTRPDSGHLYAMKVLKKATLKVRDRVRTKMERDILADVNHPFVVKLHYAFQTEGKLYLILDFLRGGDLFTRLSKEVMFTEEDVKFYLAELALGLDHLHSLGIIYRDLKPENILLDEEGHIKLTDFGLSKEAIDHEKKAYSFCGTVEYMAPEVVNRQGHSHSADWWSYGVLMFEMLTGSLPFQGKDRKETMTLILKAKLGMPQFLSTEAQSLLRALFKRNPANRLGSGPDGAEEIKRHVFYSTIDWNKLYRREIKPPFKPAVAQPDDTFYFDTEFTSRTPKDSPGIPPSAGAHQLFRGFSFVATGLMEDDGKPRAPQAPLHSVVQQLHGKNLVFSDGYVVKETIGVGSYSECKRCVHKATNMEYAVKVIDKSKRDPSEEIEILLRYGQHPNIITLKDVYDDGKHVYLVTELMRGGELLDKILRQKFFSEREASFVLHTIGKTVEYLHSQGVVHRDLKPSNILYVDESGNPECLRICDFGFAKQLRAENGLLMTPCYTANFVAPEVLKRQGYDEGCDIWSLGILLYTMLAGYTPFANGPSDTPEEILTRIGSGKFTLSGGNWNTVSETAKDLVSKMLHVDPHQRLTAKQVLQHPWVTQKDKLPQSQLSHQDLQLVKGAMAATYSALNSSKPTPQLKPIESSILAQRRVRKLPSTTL
In the case of `O=C(Nc1ccc(Cl)cc1)c1ccccc1NCc1ccncc1`, the residual activity is reported as 92%. With `Nc1nc(Nc2ccc(S(N)(=O)=O)cc2)nn1C(=S)Nc1c(F)cccc1F` the residual activity was 5.34%. In the case of `O=C1Cc2c([nH]c3ccc([N+](=O)[O-])cc23)-c2ccccc2N1`, the residual activity is reported as 89.7%. Work on `O=C1Nc2ccccc2/C1=C\c1c(Cl)[nH]c2ccccc12` yielded a residual activity of 105%. With `O=c1cc(N2CCNCC2)oc2c(-c3ccccc3)cccc12` the residual activity was 104%.

The molecules below were run against EPHB2 (human) (UniProt P29323) in the same assay as above. Conditions: compound 0.5 µM; ATP 10 µM.
`O=C(Nc1ccc(Cl)cc1)c1ccccc1NCc1ccncc1` showed a residual activity of 84.7%. Work on `Nc1nc(Nc2ccc(S(N)(=O)=O)cc2)nn1C(=S)Nc1c(F)cccc1F` yielded a residual activity of 81.4%. Molecule `O=C1Cc2c([nH]c3ccc([N+](=O)[O-])cc23)-c2ccccc2N1` has a residual activity of 101%. In the case of `O=C1Nc2ccccc2/C1=C\c1c(Cl)[nH]c2ccccc12`, the residual activity is reported as 94.2%. Molecule `O=c1cc(N2CCNCC2)oc2c(-c3ccccc3)cccc12` has a residual activity of 97.3%.

What follows are molecules tested against PRKX (human) (UniProt P51817) in the same assay as above. Conditions: compound 0.5 µM; ATP 10 µM.
In the case of `O=C(Nc1ccc(Cl)cc1)c1ccccc1NCc1ccncc1`, the residual activity is reported as 90.5%. With `Nc1nc(Nc2ccc(S(N)(=O)=O)cc2)nn1C(=S)Nc1c(F)cccc1F` the residual activity was 76.3%. Work on `O=C1Cc2c([nH]c3ccc([N+](=O)[O-])cc23)-c2ccccc2N1` yielded a residual activity of 74.5%. `O=C1Nc2ccccc2/C1=C\c1c(Cl)[nH]c2ccccc12` gave a residual activity of 106%. `O=c1cc(N2CCNCC2)oc2c(-c3ccccc3)cccc12` was tested, and the residual activity was 99%.

The molecules below were run against CAMK1G (human) (UniProt Q96NX5) in the same assay as above. Conditions: compound 0.5 µM; ATP 10 µM.
In the case of `O=C(Nc1ccc(Cl)cc1)c1ccccc1NCc1ccncc1`, the residual activity is reported as 101%. Work on `Nc1nc(Nc2ccc(S(N)(=O)=O)cc2)nn1C(=S)Nc1c(F)cccc1F` yielded a residual activity of 95.9%. Work on `O=C1Cc2c([nH]c3ccc([N+](=O)[O-])cc23)-c2ccccc2N1` yielded a residual activity of 96%. For `O=c1cc(N2CCNCC2)oc2c(-c3ccccc3)cccc12`, the residual activity was 94.7%.

These molecules were tested against MAP4K2 (human) (UniProt Q12851) in the same assay as above. Conditions: compound 0.5 µM; ATP 10 µM.
Chain of MAP4K2 (human) (Q12851 whole entry, looked up): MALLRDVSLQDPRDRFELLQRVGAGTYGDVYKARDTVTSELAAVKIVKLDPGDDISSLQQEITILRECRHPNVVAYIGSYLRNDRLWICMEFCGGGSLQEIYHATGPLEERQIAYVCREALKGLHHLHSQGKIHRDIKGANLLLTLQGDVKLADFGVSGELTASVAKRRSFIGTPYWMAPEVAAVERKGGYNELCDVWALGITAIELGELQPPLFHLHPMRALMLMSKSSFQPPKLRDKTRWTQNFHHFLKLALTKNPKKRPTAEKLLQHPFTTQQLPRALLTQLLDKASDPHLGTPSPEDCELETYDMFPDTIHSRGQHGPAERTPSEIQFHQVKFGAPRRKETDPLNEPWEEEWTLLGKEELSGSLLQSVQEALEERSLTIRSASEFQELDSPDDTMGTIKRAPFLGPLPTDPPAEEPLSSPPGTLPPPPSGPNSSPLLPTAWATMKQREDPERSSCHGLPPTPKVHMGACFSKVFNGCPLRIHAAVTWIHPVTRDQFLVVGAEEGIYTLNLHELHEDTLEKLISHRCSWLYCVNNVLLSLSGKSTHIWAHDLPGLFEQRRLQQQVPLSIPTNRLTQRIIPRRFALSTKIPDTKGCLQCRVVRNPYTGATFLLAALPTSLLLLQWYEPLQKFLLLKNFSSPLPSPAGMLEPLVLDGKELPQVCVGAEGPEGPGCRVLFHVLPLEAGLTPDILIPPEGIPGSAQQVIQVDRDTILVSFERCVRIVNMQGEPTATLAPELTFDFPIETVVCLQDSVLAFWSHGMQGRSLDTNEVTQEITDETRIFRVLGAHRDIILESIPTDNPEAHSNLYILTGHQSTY
`O=C(Nc1ccc(Cl)cc1)c1ccccc1NCc1ccncc1` showed a residual activity of 97.3%. In the case of `Nc1nc(Nc2ccc(S(N)(=O)=O)cc2)nn1C(=S)Nc1c(F)cccc1F`, the residual activity is reported as 2.13%. For `O=C1Cc2c([nH]c3ccc([N+](=O)[O-])cc23)-c2ccccc2N1`, the residual activity was 8.77%. For `O=C1Nc2ccccc2/C1=C\c1c(Cl)[nH]c2ccccc12`, the residual activity was 97.9%. Work on `O=c1cc(N2CCNCC2)oc2c(-c3ccccc3)cccc12` yielded a residual activity of 87.6%.

These molecules were tested against STK16 (human) (UniProt O75716) in the same assay as above. Conditions: compound 0.5 µM; ATP 10 µM.
Chain of STK16 (human) (O75716 whole entry, looked up): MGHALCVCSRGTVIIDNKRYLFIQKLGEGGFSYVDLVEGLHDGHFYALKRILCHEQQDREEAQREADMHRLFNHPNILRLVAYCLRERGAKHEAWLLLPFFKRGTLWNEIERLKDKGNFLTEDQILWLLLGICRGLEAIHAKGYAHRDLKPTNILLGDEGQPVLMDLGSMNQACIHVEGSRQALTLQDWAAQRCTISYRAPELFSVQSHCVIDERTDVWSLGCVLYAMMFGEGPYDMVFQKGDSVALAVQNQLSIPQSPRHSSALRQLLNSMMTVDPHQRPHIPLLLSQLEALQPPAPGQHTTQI
`O=C(Nc1ccc(Cl)cc1)c1ccccc1NCc1ccncc1` was tested, and the residual activity was 94.1%. For `Nc1nc(Nc2ccc(S(N)(=O)=O)cc2)nn1C(=S)Nc1c(F)cccc1F`, the residual activity was 42.5%. Molecule `O=C1Cc2c([nH]c3ccc([N+](=O)[O-])cc23)-c2ccccc2N1` has a residual activity of 93.1%. Work on `O=C1Nc2ccccc2/C1=C\c1c(Cl)[nH]c2ccccc12` yielded a residual activity of 102%. Molecule `O=c1cc(N2CCNCC2)oc2c(-c3ccccc3)cccc12` has a residual activity of 97.4%.

Each molecule was assayed against CAMK2B (human) (UniProt Q13554) in the same assay as above. Conditions: compound 0.5 µM; ATP 10 µM.
`O=C(Nc1ccc(Cl)cc1)c1ccccc1NCc1ccncc1` was tested, and the residual activity was 93.4%. Molecule `Nc1nc(Nc2ccc(S(N)(=O)=O)cc2)nn1C(=S)Nc1c(F)cccc1F` has a residual activity of 9.5%. With `O=C1Cc2c([nH]c3ccc([N+](=O)[O-])cc23)-c2ccccc2N1` the residual activity was 98.1%. Molecule `O=C1Nc2ccccc2/C1=C\c1c(Cl)[nH]c2ccccc12` has a residual activity of 108%. Work on `O=c1cc(N2CCNCC2)oc2c(-c3ccccc3)cccc12` yielded a residual activity of 108%.

Each molecule was assayed against MYLK (human) (UniProt Q15746) in the same assay as above. Conditions: compound 0.5 µM; ATP 10 µM.
Chain of MYLK (human) (Q15746 whole entry, looked up): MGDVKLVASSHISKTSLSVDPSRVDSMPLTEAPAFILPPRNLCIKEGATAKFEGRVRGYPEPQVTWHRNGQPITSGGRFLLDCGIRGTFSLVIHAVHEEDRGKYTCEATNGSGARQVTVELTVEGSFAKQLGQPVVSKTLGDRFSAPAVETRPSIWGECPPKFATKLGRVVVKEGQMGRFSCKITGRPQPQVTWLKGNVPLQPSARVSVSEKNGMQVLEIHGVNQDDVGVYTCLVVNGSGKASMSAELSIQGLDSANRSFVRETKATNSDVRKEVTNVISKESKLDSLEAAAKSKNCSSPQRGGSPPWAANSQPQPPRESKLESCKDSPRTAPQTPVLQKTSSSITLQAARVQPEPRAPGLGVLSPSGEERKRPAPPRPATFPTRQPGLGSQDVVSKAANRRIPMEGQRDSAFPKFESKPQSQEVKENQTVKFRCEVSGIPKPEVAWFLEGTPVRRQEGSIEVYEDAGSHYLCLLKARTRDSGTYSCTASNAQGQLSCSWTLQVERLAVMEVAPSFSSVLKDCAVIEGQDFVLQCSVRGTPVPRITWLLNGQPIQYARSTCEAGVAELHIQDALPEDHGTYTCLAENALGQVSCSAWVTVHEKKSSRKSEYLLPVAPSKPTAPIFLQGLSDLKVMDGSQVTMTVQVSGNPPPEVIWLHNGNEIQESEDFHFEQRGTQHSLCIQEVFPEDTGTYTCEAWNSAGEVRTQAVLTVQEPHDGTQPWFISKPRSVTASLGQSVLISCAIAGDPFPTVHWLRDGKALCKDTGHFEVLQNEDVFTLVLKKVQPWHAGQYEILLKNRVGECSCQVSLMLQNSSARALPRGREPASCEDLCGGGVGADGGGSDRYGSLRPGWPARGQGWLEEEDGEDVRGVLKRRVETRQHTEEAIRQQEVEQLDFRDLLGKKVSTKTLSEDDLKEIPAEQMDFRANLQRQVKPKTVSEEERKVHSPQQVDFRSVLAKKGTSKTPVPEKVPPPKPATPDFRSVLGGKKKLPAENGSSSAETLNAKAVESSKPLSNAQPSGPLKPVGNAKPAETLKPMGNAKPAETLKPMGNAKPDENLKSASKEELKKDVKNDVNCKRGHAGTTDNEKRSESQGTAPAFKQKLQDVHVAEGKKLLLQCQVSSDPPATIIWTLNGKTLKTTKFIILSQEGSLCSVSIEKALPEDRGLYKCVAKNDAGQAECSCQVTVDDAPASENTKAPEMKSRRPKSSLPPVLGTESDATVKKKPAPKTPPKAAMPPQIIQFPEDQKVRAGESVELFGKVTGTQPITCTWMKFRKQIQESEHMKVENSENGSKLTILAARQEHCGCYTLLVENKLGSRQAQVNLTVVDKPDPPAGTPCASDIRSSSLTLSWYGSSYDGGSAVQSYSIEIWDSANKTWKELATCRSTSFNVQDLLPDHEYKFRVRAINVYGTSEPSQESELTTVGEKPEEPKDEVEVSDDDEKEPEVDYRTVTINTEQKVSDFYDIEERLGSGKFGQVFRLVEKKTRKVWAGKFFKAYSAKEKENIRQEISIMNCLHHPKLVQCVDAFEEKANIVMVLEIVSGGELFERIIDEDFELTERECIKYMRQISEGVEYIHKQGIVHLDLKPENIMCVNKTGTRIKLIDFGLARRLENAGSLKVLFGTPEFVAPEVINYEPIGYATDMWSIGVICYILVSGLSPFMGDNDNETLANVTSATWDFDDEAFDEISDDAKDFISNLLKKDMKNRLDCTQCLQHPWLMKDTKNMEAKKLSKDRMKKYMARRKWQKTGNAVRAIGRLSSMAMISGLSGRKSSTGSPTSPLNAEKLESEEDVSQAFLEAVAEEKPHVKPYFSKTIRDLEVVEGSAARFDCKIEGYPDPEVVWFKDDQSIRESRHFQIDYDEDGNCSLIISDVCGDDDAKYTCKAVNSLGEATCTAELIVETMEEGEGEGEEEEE
`O=C(Nc1ccc(Cl)cc1)c1ccccc1NCc1ccncc1` was tested, and the residual activity was 105%. In the case of `Nc1nc(Nc2ccc(S(N)(=O)=O)cc2)nn1C(=S)Nc1c(F)cccc1F`, the residual activity is reported as 78.8%. Work on `O=C1Cc2c([nH]c3ccc([N+](=O)[O-])cc23)-c2ccccc2N1` yielded a residual activity of 88.8%. In the case of `O=C1Nc2ccccc2/C1=C\c1c(Cl)[nH]c2ccccc12`, the residual activity is reported as 90.4%. `O=c1cc(N2CCNCC2)oc2c(-c3ccccc3)cccc12` showed a residual activity of 105%.

Each molecule was assayed against INSRR (human) (UniProt P14616) in the same assay as above. Conditions: compound 0.5 µM; ATP 10 µM.
With `O=C(Nc1ccc(Cl)cc1)c1ccccc1NCc1ccncc1` the residual activity was 96.1%. Molecule `Nc1nc(Nc2ccc(S(N)(=O)=O)cc2)nn1C(=S)Nc1c(F)cccc1F` has a residual activity of 86.5%. `O=C1Cc2c([nH]c3ccc([N+](=O)[O-])cc23)-c2ccccc2N1` was tested, and the residual activity was 94.5%. Work on `O=C1Nc2ccccc2/C1=C\c1c(Cl)[nH]c2ccccc12` yielded a residual activity of 93.7%. Molecule `O=c1cc(N2CCNCC2)oc2c(-c3ccccc3)cccc12` has a residual activity of 89.2%.

The molecules below were run against NEK7 (human) (UniProt Q8TDX7) in the same assay as above. Conditions: compound 0.5 µM; ATP 10 µM.
Chain of NEK7 (human) (Q8TDX7 whole entry, looked up): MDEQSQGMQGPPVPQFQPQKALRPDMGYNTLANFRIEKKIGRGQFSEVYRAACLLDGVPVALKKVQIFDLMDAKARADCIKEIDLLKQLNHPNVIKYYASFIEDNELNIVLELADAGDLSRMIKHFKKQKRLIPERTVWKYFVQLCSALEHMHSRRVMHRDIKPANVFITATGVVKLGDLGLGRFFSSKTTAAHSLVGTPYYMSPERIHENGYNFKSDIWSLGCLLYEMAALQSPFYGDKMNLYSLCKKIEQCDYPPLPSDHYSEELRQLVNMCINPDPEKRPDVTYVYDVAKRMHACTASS
`O=C(Nc1ccc(Cl)cc1)c1ccccc1NCc1ccncc1` gave a residual activity of 103%. Molecule `Nc1nc(Nc2ccc(S(N)(=O)=O)cc2)nn1C(=S)Nc1c(F)cccc1F` has a residual activity of 82.6%. With `O=C1Cc2c([nH]c3ccc([N+](=O)[O-])cc23)-c2ccccc2N1` the residual activity was 89.7%. With `O=C1Nc2ccccc2/C1=C\c1c(Cl)[nH]c2ccccc12` the residual activity was 97.6%. With `O=c1cc(N2CCNCC2)oc2c(-c3ccccc3)cccc12` the residual activity was 95.7%.

Each molecule was assayed against DAPK3 (human) (UniProt O43293) in the same assay as above. Conditions: compound 0.5 µM; ATP 10 µM.
`O=C(Nc1ccc(Cl)cc1)c1ccccc1NCc1ccncc1` gave a residual activity of 94%. With `Nc1nc(Nc2ccc(S(N)(=O)=O)cc2)nn1C(=S)Nc1c(F)cccc1F` the residual activity was 94.2%. `O=C1Cc2c([nH]c3ccc([N+](=O)[O-])cc23)-c2ccccc2N1` gave a residual activity of 103%. Work on `O=C1Nc2ccccc2/C1=C\c1c(Cl)[nH]c2ccccc12` yielded a residual activity of 91.2%. With `O=c1cc(N2CCNCC2)oc2c(-c3ccccc3)cccc12` the residual activity was 133%.

What follows are molecules tested against CDK5 CDK5R1 p25 (human) (UniProt Q00535+Q15078) in the same assay as above. Conditions: compound 0.5 µM; ATP 10 µM.
Work on `O=C(Nc1ccc(Cl)cc1)c1ccccc1NCc1ccncc1` yielded a residual activity of 84.9%. `Nc1nc(Nc2ccc(S(N)(=O)=O)cc2)nn1C(=S)Nc1c(F)cccc1F` was tested, and the residual activity was 0.156%. Work on `O=C1Cc2c([nH]c3ccc([N+](=O)[O-])cc23)-c2ccccc2N1` yielded a residual activity of 10.5%. `O=C1Nc2ccccc2/C1=C\c1c(Cl)[nH]c2ccccc12` showed a residual activity of 86%. Molecule `O=c1cc(N2CCNCC2)oc2c(-c3ccccc3)cccc12` has a residual activity of 94.5%.

Each molecule was assayed against MAPKAPK3 (human) (UniProt Q16644) in the same assay as above. Conditions: compound 0.5 µM; ATP 10 µM.
Chain of MAPKAPK3 (human) (Q16644 whole entry, looked up): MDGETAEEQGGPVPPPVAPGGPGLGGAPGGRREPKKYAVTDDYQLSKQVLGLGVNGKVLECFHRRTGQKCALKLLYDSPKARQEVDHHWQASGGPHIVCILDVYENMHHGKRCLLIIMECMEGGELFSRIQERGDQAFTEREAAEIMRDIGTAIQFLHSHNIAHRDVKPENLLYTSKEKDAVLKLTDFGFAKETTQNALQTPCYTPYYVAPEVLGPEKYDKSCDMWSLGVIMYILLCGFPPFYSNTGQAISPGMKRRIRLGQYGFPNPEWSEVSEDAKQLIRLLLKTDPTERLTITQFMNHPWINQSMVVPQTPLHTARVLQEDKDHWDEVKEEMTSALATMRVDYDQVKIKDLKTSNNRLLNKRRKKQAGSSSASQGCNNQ
Molecule `O=C(Nc1ccc(Cl)cc1)c1ccccc1NCc1ccncc1` has a residual activity of 91.4%. Molecule `Nc1nc(Nc2ccc(S(N)(=O)=O)cc2)nn1C(=S)Nc1c(F)cccc1F` has a residual activity of 89.6%. `O=C1Cc2c([nH]c3ccc([N+](=O)[O-])cc23)-c2ccccc2N1` was tested, and the residual activity was 97%. `O=C1Nc2ccccc2/C1=C\c1c(Cl)[nH]c2ccccc12` showed a residual activity of 91.3%.

What follows are molecules tested against MAP3K5 (human) (UniProt Q99683) in the same assay as above. Conditions: compound 0.5 µM; ATP 10 µM.
Molecule `Nc1nc(Nc2ccc(S(N)(=O)=O)cc2)nn1C(=S)Nc1c(F)cccc1F` has a residual activity of 1.12%. `O=C1Cc2c([nH]c3ccc([N+](=O)[O-])cc23)-c2ccccc2N1` was tested, and the residual activity was 101%. Work on `O=C1Nc2ccccc2/C1=C\c1c(Cl)[nH]c2ccccc12` yielded a residual activity of 107%. Work on `O=c1cc(N2CCNCC2)oc2c(-c3ccccc3)cccc12` yielded a residual activity of 106%.

Each molecule was assayed against LYN (human) (UniProt P07948) in the same assay as above. Conditions: compound 0.5 µM; ATP 10 µM.
Chain of LYN (human) (P07948 whole entry, looked up): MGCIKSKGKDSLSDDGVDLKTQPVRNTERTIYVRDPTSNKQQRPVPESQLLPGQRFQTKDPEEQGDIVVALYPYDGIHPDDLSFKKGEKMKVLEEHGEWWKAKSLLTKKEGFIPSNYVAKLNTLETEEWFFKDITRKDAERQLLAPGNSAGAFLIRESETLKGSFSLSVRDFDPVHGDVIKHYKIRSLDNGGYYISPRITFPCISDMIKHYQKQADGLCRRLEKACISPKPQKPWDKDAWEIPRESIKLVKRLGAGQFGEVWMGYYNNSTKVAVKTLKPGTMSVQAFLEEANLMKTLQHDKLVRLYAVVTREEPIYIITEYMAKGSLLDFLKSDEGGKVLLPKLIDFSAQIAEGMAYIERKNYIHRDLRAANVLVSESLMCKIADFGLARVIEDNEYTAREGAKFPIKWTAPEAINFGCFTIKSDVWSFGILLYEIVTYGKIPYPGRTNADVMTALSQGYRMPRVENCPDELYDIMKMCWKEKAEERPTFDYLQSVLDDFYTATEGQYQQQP
In the case of `O=C(Nc1ccc(Cl)cc1)c1ccccc1NCc1ccncc1`, the residual activity is reported as 75.1% and 93.7%. In the case of `O=C1Nc2ccccc2/C1=C\c1c(Cl)[nH]c2ccccc12`, the residual activity is reported as 93.6% and 99.7%. In the case of `O=c1cc(N2CCNCC2)oc2c(-c3ccccc3)cccc12`, the residual activity is reported as 101% and 95.8%.

What follows are molecules tested against MAP3K10 (human) (UniProt Q02779) in the same assay as above. Conditions: compound 0.5 µM; ATP 10 µM.
In the case of `O=C(Nc1ccc(Cl)cc1)c1ccccc1NCc1ccncc1`, the residual activity is reported as 104%. `Nc1nc(Nc2ccc(S(N)(=O)=O)cc2)nn1C(=S)Nc1c(F)cccc1F` was tested, and the residual activity was 3%. Molecule `O=C1Cc2c([nH]c3ccc([N+](=O)[O-])cc23)-c2ccccc2N1` has a residual activity of 48.6%. With `O=C1Nc2ccccc2/C1=C\c1c(Cl)[nH]c2ccccc12` the residual activity was 94.7%. `O=c1cc(N2CCNCC2)oc2c(-c3ccccc3)cccc12` was tested, and the residual activity was 87.9%.

The molecules below were run against MAP3K3 (human) (UniProt Q99759) in the same assay as above. Conditions: compound 0.5 µM; ATP 10 µM.
`O=C(Nc1ccc(Cl)cc1)c1ccccc1NCc1ccncc1` showed a residual activity of 96.2%. `Nc1nc(Nc2ccc(S(N)(=O)=O)cc2)nn1C(=S)Nc1c(F)cccc1F` gave a residual activity of 5.41%. For `O=C1Cc2c([nH]c3ccc([N+](=O)[O-])cc23)-c2ccccc2N1`, the residual activity was 100%. With `O=C1Nc2ccccc2/C1=C\c1c(Cl)[nH]c2ccccc12` the residual activity was 112%. For `O=c1cc(N2CCNCC2)oc2c(-c3ccccc3)cccc12`, the residual activity was 109%.

Each molecule was assayed against CDK6 CCND3 (human) (UniProt P30281+Q00534) in the same assay as above. Conditions: compound 0.5 µM; ATP 10 µM.
For `O=C(Nc1ccc(Cl)cc1)c1ccccc1NCc1ccncc1`, the residual activity was 86.5%. `Nc1nc(Nc2ccc(S(N)(=O)=O)cc2)nn1C(=S)Nc1c(F)cccc1F` was tested, and the residual activity was 7.69%. With `O=C1Nc2ccccc2/C1=C\c1c(Cl)[nH]c2ccccc12` the residual activity was 104%. `O=c1cc(N2CCNCC2)oc2c(-c3ccccc3)cccc12` gave a residual activity of 93.8%.
